Experimental data: ChEMBL document CHEMBL1909046, “DrugMatrix in vitro pharmacology data”

Legend:
[1] = DRUGMATRIX: Sigma2 radioligand binding (ligand: [3H] Ifenprodil); assay type: cell membranes, Rattus norvegicus, Wistar, Brain, Membrane; settings: Not Active = under 50% inhibition at 10 µM
[2] = DRUGMATRIX: Glutamate, AMPA radioligand binding (ligand: [3H] AMPA); assay type: cell membranes, Rattus norvegicus, Wistar, Cerebral cortex, Membrane; settings: Not Active = under 50% inhibition at 10 µM
[3] = DRUGMATRIX: Glutamate, Kainate radioligand binding (ligand: [3H] Kainic acid); assay type: cell membranes, Rattus norvegicus, Wistar, Brain, Membrane; settings: Not Active = under 50% inhibition at 10 µM
[4] = DRUGMATRIX: Glutamate, NMDA, Phencyclidine radioligand binding (ligand: [3H] TCP); assay type: cell membranes, Rattus norvegicus, Wistar, Cerebral cortex, Membrane; settings: Not Active = under 50% inhibition at 10 µM
Glycine receptor = Glycine receptor (Rattus norvegicus, UniProt P22771+P24524+P07727+P20781); assay type: cell membranes, Wistar, Spinal cord, Membrane; note: in other assays of this panel Not Active means under 50% inhibition at 10 µM
Nitric oxide synthase 1 = Nitric oxide synthase 1 (Rattus norvegicus, UniProt P29476); assay type: tissue-based, Cerebellum; note: in other assays of this panel Not Active means under 50% inhibition at 10 µM
[5] = DRUGMATRIX: Phosphodiesterase PDE3 enzyme inhibition (substrate: [3H]cAMP + cAMP); assay type: tissue-based, Homo sapiens; settings: platelet; Not Active = under 50% inhibition at 10 µM
Acetylcholinesterase = Acetylcholinesterase (Homo sapiens, UniProt P22303); experiment: DRUGMATRIX: Acetylcholinesterase enzyme inhibition (substrate: acetylthiocholine); assay type: cell-based, HEK293; settings: hek293; Not Active = under 50% inhibition at 10 µM
Chain of Acetylcholinesterase (P22303 whole entry): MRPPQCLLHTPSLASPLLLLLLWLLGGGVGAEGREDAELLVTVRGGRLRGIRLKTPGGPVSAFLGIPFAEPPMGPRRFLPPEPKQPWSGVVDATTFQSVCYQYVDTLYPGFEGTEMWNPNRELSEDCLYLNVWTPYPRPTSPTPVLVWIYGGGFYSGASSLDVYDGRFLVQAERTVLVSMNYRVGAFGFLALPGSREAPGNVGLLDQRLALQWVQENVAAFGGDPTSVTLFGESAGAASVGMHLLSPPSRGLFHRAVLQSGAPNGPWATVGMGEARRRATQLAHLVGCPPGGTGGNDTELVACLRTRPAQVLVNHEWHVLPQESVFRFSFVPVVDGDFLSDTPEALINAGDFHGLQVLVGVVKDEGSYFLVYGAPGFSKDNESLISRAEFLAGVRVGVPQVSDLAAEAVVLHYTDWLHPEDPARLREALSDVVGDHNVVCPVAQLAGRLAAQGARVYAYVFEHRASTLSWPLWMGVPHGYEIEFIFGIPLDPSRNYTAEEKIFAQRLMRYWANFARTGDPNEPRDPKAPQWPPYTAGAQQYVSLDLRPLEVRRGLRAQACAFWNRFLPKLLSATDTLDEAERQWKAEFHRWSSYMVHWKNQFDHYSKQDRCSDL

Chain of Nitric oxide synthase 1 (P29476 whole entry): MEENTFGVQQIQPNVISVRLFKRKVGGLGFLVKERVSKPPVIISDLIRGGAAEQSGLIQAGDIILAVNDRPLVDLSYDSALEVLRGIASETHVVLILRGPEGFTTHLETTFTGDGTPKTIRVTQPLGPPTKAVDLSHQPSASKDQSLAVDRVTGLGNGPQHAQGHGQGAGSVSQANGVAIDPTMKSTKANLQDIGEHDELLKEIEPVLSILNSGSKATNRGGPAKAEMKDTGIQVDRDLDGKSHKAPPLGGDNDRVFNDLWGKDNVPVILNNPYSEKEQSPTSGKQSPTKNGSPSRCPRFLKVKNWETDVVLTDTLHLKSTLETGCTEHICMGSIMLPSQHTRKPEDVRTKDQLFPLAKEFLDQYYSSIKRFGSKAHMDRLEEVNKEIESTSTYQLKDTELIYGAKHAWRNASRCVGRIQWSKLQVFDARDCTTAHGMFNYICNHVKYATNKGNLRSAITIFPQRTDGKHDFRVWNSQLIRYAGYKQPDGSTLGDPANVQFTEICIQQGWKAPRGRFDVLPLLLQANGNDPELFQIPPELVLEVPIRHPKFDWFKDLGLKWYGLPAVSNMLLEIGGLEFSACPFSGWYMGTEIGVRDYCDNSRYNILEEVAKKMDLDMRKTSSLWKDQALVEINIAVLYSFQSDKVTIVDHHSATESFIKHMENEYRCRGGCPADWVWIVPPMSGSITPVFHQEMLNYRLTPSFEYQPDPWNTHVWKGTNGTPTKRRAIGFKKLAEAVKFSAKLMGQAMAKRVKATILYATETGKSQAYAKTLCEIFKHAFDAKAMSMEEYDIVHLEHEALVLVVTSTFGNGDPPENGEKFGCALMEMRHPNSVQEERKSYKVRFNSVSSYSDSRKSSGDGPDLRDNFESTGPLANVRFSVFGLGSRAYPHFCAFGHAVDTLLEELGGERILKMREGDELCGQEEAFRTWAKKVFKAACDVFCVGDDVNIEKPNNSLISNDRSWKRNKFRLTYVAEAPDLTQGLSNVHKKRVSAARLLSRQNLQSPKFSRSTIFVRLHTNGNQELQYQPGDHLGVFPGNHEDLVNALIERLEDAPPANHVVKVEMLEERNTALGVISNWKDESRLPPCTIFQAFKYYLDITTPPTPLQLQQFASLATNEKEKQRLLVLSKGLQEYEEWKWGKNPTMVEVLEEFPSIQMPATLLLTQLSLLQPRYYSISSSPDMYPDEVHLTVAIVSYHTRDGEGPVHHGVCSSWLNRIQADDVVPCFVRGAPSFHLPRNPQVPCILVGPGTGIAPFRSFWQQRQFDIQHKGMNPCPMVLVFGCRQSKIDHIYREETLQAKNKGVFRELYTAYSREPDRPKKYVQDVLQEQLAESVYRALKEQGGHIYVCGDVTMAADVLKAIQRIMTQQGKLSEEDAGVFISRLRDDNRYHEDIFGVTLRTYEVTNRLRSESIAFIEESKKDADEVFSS

Cc1nnc(NS(=O)(=O)c2ccc(N)cc2)s1 [SULFAMETHIZOLE]
Not Active: IC50 [1] | Ki [1] | IC50 [2] | Ki [2] | IC50 [3] | Ki [3] | IC50 [4] | Ki [4] | IC50 (Glycine receptor) | IC50 (Nitric oxide synthase 1) | IC50 [5] | Ki [5] | IC50 (Acetylcholinesterase)

CCC(C)(C)C(=O)O[C@H]1C[C@@H](C)C=C2C=C[C@H](C)[C@H](CC[C@@H]3C[C@@H](O)CC(=O)O3)[C@H]21 [SIMVASTATIN]
Not Active: IC50 [1] | Ki [1] | IC50 [2] | Ki [2] | IC50 [3] | Ki [3] | IC50 [4] | Ki [4] | IC50 (Glycine receptor) | IC50 (Nitric oxide synthase 1) | IC50 [5] | Ki [5] | IC50 (Acetylcholinesterase)

CN1C(=O)OC(C)(C)C1=O [TRIMETHADIONE]
Not Active: IC50 [1] | Ki [1] | IC50 [2] | Ki [2] | IC50 [3] | Ki [3] | IC50 [4] | Ki [4] | IC50 (Glycine receptor) | IC50 (Nitric oxide synthase 1) | IC50 [5] | Ki [5] | IC50 (Acetylcholinesterase)

CC[C@H](C)[C@@H](CO[C@@H](Cc1ccccc1)C(=O)N[C@@H](CCS(C)(=O)=O)C(=O)OC(C)C)NC[C@@H](N)CS
Not Active: IC50 [1] | Ki [1] | IC50 [2] | Ki [2] | IC50 [3] | Ki [3] | IC50 [4] | Ki [4] | IC50 (Glycine receptor) | IC50 (Nitric oxide synthase 1) | IC50 [5] | Ki [5] | IC50 (Acetylcholinesterase)

OC[C@@H](O)[C@@H](O)[C@H](O)[C@H](O)CO [MANNITOL]
Not Active: IC50 [1] | Ki [1] | IC50 [2] | Ki [2] | IC50 [3] | Ki [3] | IC50 [4] | Ki [4] | IC50 (Glycine receptor) | IC50 (Nitric oxide synthase 1) | IC50 [5] | Ki [5] | IC50 (Acetylcholinesterase)

Cc1cn([C@H]2C=C[C@@H](CO)O2)c(=O)[nH]c1=O [STAVUDINE]
Not Active: IC50 [1] | Ki [1] | IC50 [2] | Ki [2] | IC50 [3] | Ki [3] | IC50 [4] | Ki [4] | IC50 (Glycine receptor) | IC50 (Nitric oxide synthase 1) | IC50 [5] | Ki [5] | IC50 (Acetylcholinesterase)

C[N+]1(C)[C@@H]2C[C@@H](OC(=O)[C@H](CO)c3ccccc3)C[C@H]1[C@@H]1O[C@@H]12.[Br-] [METHSCOPOLAMINE BROMIDE]
Not Active: IC50 [1] | Ki [1] | IC50 [2] | Ki [2] | IC50 [3] | Ki [3] | IC50 [4] | Ki [4] | IC50 (Glycine receptor) | IC50 (Nitric oxide synthase 1) | IC50 [5] | Ki [5] | IC50 (Acetylcholinesterase)

CC1=C(/C=C/C(C)=C/C=C/C(C)=C/C(=O)O)C(C)(C)CCC1 [TRETINOIN]
Not Active: IC50 [1] | Ki [1] | IC50 [2] | Ki [2] | IC50 [3] | Ki [3] | IC50 [4] | Ki [4] | IC50 (Glycine receptor) | IC50 (Nitric oxide synthase 1) | IC50 [5] | Ki [5] | IC50 (Acetylcholinesterase)
